Where a name gives a salt, the structure may show the parent alone.
Assay: UV absorption spectrum in water
Assay type: physicochemical
Settings: for UV E1% / UV εmax: at λmax

Nc1ccc(C=C(C(=O)O)C(=O)O)cc1 [Example 1, dipiperidinium salt of 2-(4-aminobenzylidene)malonic acid]
UV λmax: 305 nm | UV E1%: 446 | UV εmax: 16800 L/mol/cm

Nc1ccc(C=C(C(=O)O)C(=O)O)cc1 [Example 2, disodium salt of 2-(4-aminobenzylidene)malonic acid]
UV λmax: 305 nm | UV E1%: 670 | UV εmax: 16800 L/mol/cm

Nc1ccc(C=C(C(=O)O)C(=O)O)cc1 [Example 3, dipotassium salt of 2-(4-aminobenzylidene)malonic acid]
UV λmax: 306 nm | UV E1%: 496 | UV εmax: 14000 L/mol/cm

CC(=O)Nc1ccc(C=C(C(=O)O)C(=O)O)cc1 [Example 4, dipotassium salt of 2-(4-acetamidobenzylidene)malonic acid]
UV λmax: 292 nm | UV E1%: 498 | UV εmax: 16200 L/mol/cm

dipotassium salt of 2-(4-laurylamidobenzylidene)malonic acid [Example 5]
UV λmax: 292 nm | UV E1%: 422 | UV εmax: 14000 L/mol/cm

From patent US7326407B2, “Amine, amide, sulphonamide and carbamate derivatives of benzalmalonic salts and photoprotective cosmetic compositions comprised thereof” (L'Oreal, priority 2003, dated 2008)
